This is an account of results in ChEMBL document CHEMBL1143150, “Design of azidoproline containing gluten peptides to suppress CD4+ T-cell responses associated with celiac disease” (Bioorg Med Chem, 2008).

As a reminder, the IC50 is the concentration needed to halve the response being measured.

Structures are written as SMILES. Active and inactive are the calls of the source. No cut-off for these calls is given here. Numbered stars: 1 amine (or outer) side, 2 acyl side, 3 side chain; on linkers, the order of the positions; unused ones are H or OH. Square brackets hold non-standard residues; d marks the D form. Side chains are listed from the residue outwards. Peptide text beside a SMILES is read from it. * marks the point of attachment. X3 = O=C([C@@H]1C[C@@H](n2cc(C(=O)[*:3])nn2)CN1[*:1])[*:2]; X1 = O=C([C@@H]1C[C@H](n2cc(C(=O)[*:3])nn2)CN1[*:1])[*:2]; X5 = CNC(=O)c1cn([C@@H]2C[C@@H](C(=O)[*:2])N([*:1])C2)nn1; X6 = CNC(=O)c1cn([C@H]2C[C@@H](C(=O)[*:2])N([*:1])C2)nn1; X4 = [N-]=[N+]=N[C@@H]1C[C@@H](C(=O)[*:2])N([*:1])C1; Pro(cis-4-N3) = [N-]=[N+]=N[C@@H]1CN[C@H](C(=O)O)C1; pGlu = O=C1CC[C@@H](C(=O)O)N1; X2 = NC(=O)CCCC(=O)*

Assay [1] is described as follows: Binding affinity to HLA-DQ2 expressed in EBV-transformed B cells. It counts as cell-based.
The test system of another assay is T-cell. The assay is described as follows: Blockade of HLA-DQ2 specific human CD4+ T cell proliferation in presence of alpha-9-gluten peptide after 48 hrs. It counts as functional, cell-based.

`CC(C)C[C@H](NC(=O)[C@H](CCC(=O)O)NC(=O)[C@@H]1CCCN1C(=O)[C@H](CCC(N)=O)NC(=O)[C@@H]1C[C@H](N=[N+]=[N-])CN1C(=O)[C@H](Cc1ccccc1)NC(=O)[C@@H]1CCCN1C(=O)[C@H](CCC(N)=O)NC(=O)[C@@H](N)CC(C)C)C(=O)N1CCC[C@H]1C(=O)N[C@@H](Cc1ccc(O)cc1)C(=O)N1CCC[C@H]1C(=O)N[C@@H](CCC(N)=O)C(=O)O` (H-LQPF[Pro(cis-4-N3)]QPELPYPQ-OH): the IC50 in assay [1] is 6.9 µM. For the compound `CC(C)C[C@H](NC(=O)[C@@H](N)CCC(N)=O)C(=O)N[C@@H](CCC(N)=O)C(=O)N1CCC[C@H]1C(=O)N[C@@H](Cc1ccccc1)C(=O)N1C[C@@H](N=[N+]=[N-])C[C@H]1C(=O)N[C@@H](CCC(N)=O)C(=O)N1CCC[C@H]1C(=O)N[C@@H](CCC(=O)O)C(=O)N[C@@H](CC(C)C)C(=O)N1CCC[C@H]1C(=O)N[C@@H](Cc1ccc(O)cc1)C(=O)N1CCC[C@H]1C(=O)N[C@@H](CCC(N)=O)C(=O)O` (H-QLQPF[Pro(cis-4-N3)]QPELPYPQ-OH), in assay [1], the IC50 came out at 10.7 µM. Take `CNC(=O)c1cn([C@@H]2C[C@@H](C(=O)N[C@@H](CCC(N)=O)C(=O)N3CCC[C@H]3C(=O)N[C@@H](CCC(=O)O)C(=O)N[C@@H](CC(C)C)C(=O)N3CCC[C@H]3C(=O)N[C@@H](Cc3ccc(O)cc3)C(=O)N3CCC[C@H]3C(=O)N[C@@H](CCC(N)=O)C(=O)O)N(C(=O)[C@H](Cc3ccccc3)NC(=O)[C@@H]3CCCN3C(=O)[C@H](CCC(N)=O)NC(=O)[C@H](CC(C)C)NC(=O)[C@@H]3CCC(=O)N3)C2)nn1` ([pGlu]LQPF[X5]QPELPYPQ-OH): the IC50 in assay [1] (read-out: IC50) came out at 5.8 µM.

For the compound `COC(=O)[C@H](Cc1ccccc1)NC(=O)c1cn([C@@H]2C[C@@H](C(=O)N[C@@H](CCC(N)=O)C(=O)N3CCC[C@H]3C(=O)N[C@@H](CCC(=O)O)C(=O)N[C@@H](CC(C)C)C(=O)N3CCC[C@H]3C(=O)N[C@@H](Cc3ccc(O)cc3)C(=O)N3CCC[C@H]3C(=O)N[C@@H](CCC(N)=O)C(=O)O)N(C(=O)[C@H](Cc3ccccc3)NC(=O)[C@@H]3CCCN3C(=O)[C@H](CCC(N)=O)NC(=O)[C@H](CC(C)C)NC(=O)[C@@H]3CCC(=O)N3)C2)nn1` ([pGlu]LQPF[X3]([Phe-OMe])QPELPYPQ-OH), the IC50 in assay [1] (read-out: IC50) stood at 29.2 µM.

`CC(C)C[C@H](NC(=O)CN)C(=O)N[C@@H](CCC(N)=O)C(=O)N1CCC[C@H]1C(=O)N[C@@H](Cc1ccccc1)C(=O)N1C[C@@H](N=[N+]=[N-])C[C@H]1C(=O)N[C@@H](CCC(N)=O)C(=O)N1CCC[C@H]1C(=O)N[C@@H](CCC(=O)O)C(=O)N[C@@H](CC(C)C)C(=O)N1CCC[C@H]1C(=O)N[C@@H](Cc1ccc(O)cc1)C(=O)N1CCC[C@H]1C(=O)N[C@@H](CCC(N)=O)C(=O)O` (H-GLQPF[Pro(cis-4-N3)]QPELPYPQ-OH) had an IC50 in assay [1] of 9.4 µM.

As to `CC(C)C[C@H](NC(=O)[C@@H](N)CCC(N)=O)C(=O)N[C@@H](CCC(N)=O)C(=O)N1CCC[C@H]1C(=O)N[C@@H](Cc1ccccc1)C(=O)N1CCC[C@H]1C(=O)N[C@@H](CCC(N)=O)C(=O)N1CCC[C@H]1C(=O)N[C@@H](CCC(=O)O)C(=O)N[C@@H](CC(C)C)C(=O)N1CCC[C@H]1C(=O)N[C@@H](Cc1ccc(O)cc1)C(=O)O` (H-QLQPFPQPELPY-OH), in assay [1], the IC50 is 17.2 µM. In the case of `CC(C)C[C@H](NC(=O)[C@@H]1CCC(=O)N1)C(=O)N[C@@H](CCC(N)=O)C(=O)N1CCC[C@H]1C(=O)N[C@@H](Cc1ccccc1)C(=O)N1CCC[C@H]1C(=O)N[C@@H](CCC(N)=O)C(=O)N1C[C@@H](N=[N+]=[N-])C[C@H]1C(=O)N[C@@H](CCC(=O)O)C(=O)N[C@@H](CC(C)C)C(=O)N1CCC[C@H]1C(=O)N[C@@H](Cc1ccc(O)cc1)C(=O)N1CCC[C@H]1C(=O)N[C@@H](CCC(N)=O)C(=O)O` ([pGlu]LQPFPQ[Pro(cis-4-N3)]ELPYPQ-OH), the IC50 in assay [1] (read-out: IC50) was determined as 2.4 µM. The same measure, in the same setting: next, `CC(C)C[C@H](NC(=O)[C@@H]1CCC(=O)N1)C(=O)N[C@@H](CCC(N)=O)C(=O)N1CCC[C@H]1C(=O)N[C@@H](Cc1ccccc1)C(=O)N1C[C@@H](N=[N+]=[N-])C[C@H]1C(=O)N[C@@H](CCC(N)=O)C(=O)N1CCC[C@H]1C(=O)N[C@@H](CCC(=O)O)C(=O)N[C@@H](CC(C)C)C(=O)N1CCC[C@H]1C(=O)N[C@@H](Cc1ccc(O)cc1)C(=O)N1CCC[C@H]1C(=O)N[C@@H](CCC(N)=O)C(=O)O` ([pGlu]LQPF[Pro(cis-4-N3)]QPELPYPQ-OH): 3.2 µM.

In assay [1], `CC(C)C[C@H](NC(=O)CCCC(N)=O)C(=O)N[C@@H](CCC(N)=O)C(=O)N1CCC[C@H]1C(=O)N[C@@H](Cc1ccccc1)C(=O)N1C[C@@H](N=[N+]=[N-])C[C@H]1C(=O)N[C@@H](CCC(N)=O)C(=O)N1CCC[C@H]1C(=O)N[C@@H](CCC(=O)O)C(=O)N[C@@H](CC(C)C)C(=O)N1CCC[C@H]1C(=O)N[C@@H](Cc1ccc(O)cc1)C(=O)N1CCC[C@H]1C(=O)N[C@@H](CCC(N)=O)C(=O)O` (X2-LQPF[Pro(cis-4-N3)]QPELPYPQ-OH) returned an IC50 of 7.2 µM. In the case of `COC(=O)[C@H](Cc1ccccc1)NC(=O)c1cn([C@@H]2C[C@@H](C(=O)N[C@@H](CCC(=O)O)C(=O)N[C@@H](CC(C)C)C(=O)N3CCC[C@H]3C(=O)N[C@@H](Cc3ccc(O)cc3)C(=O)N3CCC[C@H]3C(=O)N[C@@H](CCC(N)=O)C(=O)O)N(C(=O)[C@H](CCC(N)=O)NC(=O)[C@@H]3CCCN3C(=O)[C@H](Cc3ccccc3)NC(=O)[C@@H]3CCCN3C(=O)[C@H](CCC(N)=O)NC(=O)[C@H](CC(C)C)NC(=O)[C@@H]3CCC(=O)N3)C2)nn1` ([pGlu]LQPFPQ[X3]([Phe-OMe])ELPYPQ-OH), the IC50 in assay [1] (read-out: IC50) was determined as 3.2 µM.

With `CNC(=O)c1cn([C@H]2C[C@@H](C(=O)N[C@@H](CCC(=O)O)C(=O)N[C@@H](CC(C)C)C(=O)N3CCC[C@H]3C(=O)N[C@@H](Cc3ccc(O)cc3)C(=O)N3CCC[C@H]3C(=O)N[C@@H](CCC(N)=O)C(=O)O)N(C(=O)[C@H](CCC(N)=O)NC(=O)[C@@H]3CCCN3C(=O)[C@H](Cc3ccccc3)NC(=O)[C@@H]3CCCN3C(=O)[C@H](CCC(N)=O)NC(=O)[C@H](CC(C)C)NC(=O)[C@@H]3CCC(=O)N3)C2)nn1` ([pGlu]LQPFPQ[X6]ELPYPQ-OH), in assay [1] (read-out: IC50), the IC50 is 9 µM. The same measure, in the same setting: the result for `COC(=O)[C@H](Cc1ccccc1)NC(=O)c1cn([C@H]2C[C@@H](C(=O)N[C@@H](CCC(=O)O)C(=O)N[C@@H](CC(C)C)C(=O)N3CCC[C@H]3C(=O)N[C@@H](Cc3ccc(O)cc3)C(=O)N3CCC[C@H]3C(=O)N[C@@H](CCC(N)=O)C(=O)O)N(C(=O)[C@H](CCC(N)=O)NC(=O)[C@@H]3CCCN3C(=O)[C@H](Cc3ccccc3)NC(=O)[C@@H]3CCCN3C(=O)[C@H](CCC(N)=O)NC(=O)[C@H](CC(C)C)NC(=O)[C@@H]3CCC(=O)N3)C2)nn1` ([pGlu]LQPFPQ[X1]([Phe-OMe])ELPYPQ-OH) reads 2.3 µM. In assay [1], `CC(C)C[C@H](NC(=O)[C@H](CCC(N)=O)NC(=O)[C@@H](N)CC(C)C)C(=O)N[C@@H](CCC(N)=O)C(=O)N1CCC[C@H]1C(=O)N[C@@H](Cc1ccccc1)C(=O)N1C[C@@H](N=[N+]=[N-])C[C@H]1C(=O)N[C@@H](CCC(N)=O)C(=O)N1CCC[C@H]1C(=O)N[C@@H](CCC(=O)O)C(=O)N[C@@H](CC(C)C)C(=O)N1CCC[C@H]1C(=O)N[C@@H](Cc1ccc(O)cc1)C(=O)N1CCC[C@H]1C(=O)N[C@@H](CCC(N)=O)C(=O)O` returned an IC50 of 8.6 µM. As for `CNC(=O)c1cn([C@@H]2C[C@@H](C(=O)N[C@@H](CCC(=O)O)C(=O)N[C@@H](CC(C)C)C(=O)N3CCC[C@H]3C(=O)N[C@@H](Cc3ccc(O)cc3)C(=O)N3CCC[C@H]3C(=O)N[C@@H](CCC(N)=O)C(=O)O)N(C(=O)[C@H](CCC(N)=O)NC(=O)[C@@H]3CCCN3C(=O)[C@H](Cc3ccccc3)NC(=O)[C@@H]3CCCN3C(=O)[C@H](CCC(N)=O)NC(=O)[C@H](CC(C)C)NC(=O)[C@@H]3CCC(=O)N3)C2)nn1` ([pGlu]LQPFPQ[X5]ELPYPQ-OH), in assay [1] (read-out: IC50), the IC50 came to 5.8 µM. The same measure, in the same setting: the result for `CC(C)C[C@H](NC(=O)[C@@H]1CCC(=O)N1)C(=O)N[C@@H](CCC(N)=O)C(=O)N1CCC[C@H]1C(=O)N[C@@H](Cc1ccccc1)C(=O)N1CCC[C@H]1C(=O)N[C@@H](CCC(N)=O)C(=O)N1C[C@H](N=[N+]=[N-])C[C@H]1C(=O)N[C@@H](CCC(=O)O)C(=O)N[C@@H](CC(C)C)C(=O)N1CCC[C@H]1C(=O)N[C@@H](Cc1ccc(O)cc1)C(=O)N1CCC[C@H]1C(=O)N[C@@H](CCC(N)=O)C(=O)O` ([pGlu]LQPFPQ[X4]ELPYPQ-OH) reads 2.3 µM. Consider `CC(C)C[C@H](NC(=O)[C@@H]1CCC(=O)N1)C(=O)N[C@@H](CCC(N)=O)C(=O)N1CCC[C@H]1C(=O)N[C@@H](Cc1ccccc1)C(=O)N1C[C@H](N=[N+]=[N-])C[C@H]1C(=O)N[C@@H](CCC(N)=O)C(=O)N1CCC[C@H]1C(=O)N[C@@H](CCC(=O)O)C(=O)N[C@@H](CC(C)C)C(=O)N1CCC[C@H]1C(=O)N[C@@H](Cc1ccc(O)cc1)C(=O)N1CCC[C@H]1C(=O)N[C@@H](CCC(N)=O)C(=O)O` ([pGlu]LQPF[X4]QPELPYPQ-OH), for which, in assay [1] (read-out: IC50), the IC50 worked out at 5.5 µM.

`CNC(=O)c1cn([C@H]2C[C@@H](C(=O)N[C@@H](CCC(N)=O)C(=O)N3CCC[C@H]3C(=O)N[C@@H](CCC(=O)O)C(=O)N[C@@H](CC(C)C)C(=O)N3CCC[C@H]3C(=O)N[C@@H](Cc3ccc(O)cc3)C(=O)N3CCC[C@H]3C(=O)N[C@@H](CCC(N)=O)C(=O)O)N(C(=O)[C@H](Cc3ccccc3)NC(=O)[C@@H]3CCCN3C(=O)[C@H](CCC(N)=O)NC(=O)[C@H](CC(C)C)NC(=O)[C@@H]3CCC(=O)N3)C2)nn1` ([pGlu]LQPF[X6]QPELPYPQ-OH): the IC50 in assay [1] (read-out: IC50) is 4.6 µM. Take `COC(=O)[C@H](Cc1ccccc1)NC(=O)c1cn([C@H]2C[C@@H](C(=O)N[C@@H](CCC(N)=O)C(=O)N3CCC[C@H]3C(=O)N[C@@H](CCC(=O)O)C(=O)N[C@@H](CC(C)C)C(=O)N3CCC[C@H]3C(=O)N[C@@H](Cc3ccc(O)cc3)C(=O)N3CCC[C@H]3C(=O)N[C@@H](CCC(N)=O)C(=O)O)N(C(=O)[C@H](Cc3ccccc3)NC(=O)[C@@H]3CCCN3C(=O)[C@H](CCC(N)=O)NC(=O)[C@H](CC(C)C)NC(=O)[C@@H]3CCC(=O)N3)C2)nn1` ([pGlu]LQPF[X1]([Phe-OMe])QPELPYPQ-OH): the IC50 in assay [1] (read-out: IC50) amounted to 1.3 µM. For the same compound, in the assay with T-cell, the outcome was Active.
